Reference: patent US11932634B2 (Gilead Sciences, Inc., priority 2021, dated 2024)

Legend:
human DGKα = target: T1, human DGKα (Homo sapiens, UniProt P23743); assay: DGKα Biochemical Activity Assay (ADP-Glo);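 note: recombinant enzyme converting diacylglycerol in lipid micelles with ATP, ADP formed detected by luminescence, IC50 from a four-parameter nonlinear fit, geometric mean across experiments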
T1 construct: purchased Carna Biosciences'; inferred from the same paragraph's 'obtained from Carna Biosciences')
T1 sequence (P23743 whole entry): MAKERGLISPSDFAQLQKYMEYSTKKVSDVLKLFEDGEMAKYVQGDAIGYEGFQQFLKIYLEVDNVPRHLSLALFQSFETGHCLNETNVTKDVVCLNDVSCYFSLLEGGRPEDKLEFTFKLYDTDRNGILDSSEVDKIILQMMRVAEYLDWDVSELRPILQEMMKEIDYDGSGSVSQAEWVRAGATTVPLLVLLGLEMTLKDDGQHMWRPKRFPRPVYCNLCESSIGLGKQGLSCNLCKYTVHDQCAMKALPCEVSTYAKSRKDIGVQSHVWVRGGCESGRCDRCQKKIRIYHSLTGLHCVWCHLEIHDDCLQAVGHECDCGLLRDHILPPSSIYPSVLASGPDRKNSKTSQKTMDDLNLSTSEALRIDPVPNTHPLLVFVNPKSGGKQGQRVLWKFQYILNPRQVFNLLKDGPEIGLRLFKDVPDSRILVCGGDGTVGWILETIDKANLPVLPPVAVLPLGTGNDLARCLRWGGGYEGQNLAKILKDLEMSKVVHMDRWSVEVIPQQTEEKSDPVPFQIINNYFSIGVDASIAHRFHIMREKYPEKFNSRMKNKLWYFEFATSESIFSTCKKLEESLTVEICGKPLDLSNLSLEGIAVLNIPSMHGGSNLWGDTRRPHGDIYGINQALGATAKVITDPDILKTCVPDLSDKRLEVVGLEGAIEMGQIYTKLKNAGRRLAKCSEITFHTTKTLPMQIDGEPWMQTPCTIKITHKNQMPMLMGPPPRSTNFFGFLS
Text: Alternatively, the enzymatic activity of human DGKα was monitored in a biochemical assay in the presence or absence of compounds and using micelles containing 18:1 Diacylglycerol (DAG), 16:0-18:1 PS (POPS) and Octylglucoside as substrate. DGKα activity led to conversion of DAG and ATP to Phosphatidic Acid (PA) and ADP. Levels of ADP were monitored by bioluminescence using the ADP-Glo Kinase Assay (Promega) and were indicative of DGKα activity.
Ten nanoliters of test compound dissolved in DMSO at various concentrations were dispensed into a 384-well low volume nonbinding service white plates (Corning #3824) using a Labcyte Echo instrument. Recombinant DGKα Biosciences) in assay buffer (5 μL in 50 mM MOPS [3-(N-morpholino) propanesulfonic acid], pH 7.2; 0.0025% Triton X-100; 1 mM dithiothreitol; 5 mM MgCl2, 200 μM ATP) was added to the compound-containing plate and was incubated for 15 minutes at 25° C. A substrate solution (5 μL in 1.7 mM 1,2-dioleoyl-sn-glycerol [18:1 DAG], 13.5 mM 1-palmitoyl-2-oleoyl-sn-glycero-3-phospho-L-serine [16:0-18:1 PS](POPS), 2 μM CaCl2), 100 mM Octylglucoside (OG), 1 mM DTT) (obtained from Carna Biosciences) diluted in DGK ALPHA assay buffer was then added to start the reaction. Final concentrations were 1 nM DGKα, 100 μM ATP, 1 μM calcium chloride, 0.85 mM 1,2-dioleoyl-sn-glycerol (18:1 DAG), 6.75 mM 1-palmitoyl-2-oleoyl-sn-glycero-3-phospho-L-serine (16:0-18:1 PS) (POPS), 1 μM CaCl2), 50 mM Octylglucoside (OG) and 5 mM MgCl2. The reaction mixture was incubated at 25° C. for 1 hour. ADP-Glo Reagent (10 μL, 10 mM Mg added) provided by the kit was added to each well and incubated at 25° C. for 40 minutes. Then, 20 μL of Kinase Detection Reagent was added and incubated at 25° C. for 40 minutes. Luciferase activity of each well was measured via luminescence on an Envision plate reader (PerkinElmer).
Least squares curve fittings were performed using a four-parameter variable slope nonlinear regression model. […] IC50 values from multiple experiments were averaged by geometric mean and the standard deviation was calculated.

[1] = test system: Jurkat NFκB-luciferase cells; assay: Jurkat NFκB-Luciferase Assay; type: cell-based; settings: Homo sapiens; Jurkat NFκB-luciferase cells activated with anti-CD3 antibody (OKT3), 2.5 hrs at 37° C., One-Glo Ex; geometric mean; read-out: DGK NFKb Luciferase EC50;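 note: bioluminescence read-out normalized to DMSO basal activation and to maximum enhancement at 1 µM compound, rising signal indicating stronger T-cell activation through DGKα inhibition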

Row | Structure (SMILES) | IC50 (human DGKα) [nM] | EC50 [1] [nM]
1 | O=c1nc(N(CC(F)F)c2ccnc(C#CC3(C(F)(F)F)CC3)c2F)c2c(F)cccc2[nH]1 [Example 118, 4-[2,2-difluoroethyl-[3-fluoro-2-[2-[1-(trifluoromethyl)cyclopropyl]ethynyl]-4-pyridyl]amino]-5-fluoro-1H-quinazolin-2-one] | 25.7 | 3.73
2 | CC(C)(C#N)C#Cc1nccc(N(CC(F)F)c2nc(=O)[nH]c3cccc(F)c23)c1F [Example 119, 4-[4-[2,2-difluoroethyl-(5-fluoro-2-oxo-1H-quinazolin-4-yl)amino]-3-fluoro-2-pyridyl]-2,2-dimethyl-but-3-ynenitrile] | 10.8 | 7.11
3 | [2H]C([2H])([2H])n1c(=O)nc(N(CC(F)F)c2ccnc(C#Cc3cnn(C)c3)c2)c2c(F)c(F)ccc21 [Example 120, 4-[2,2-difluoroethyl-[2-[2-(1-methylpyrazol-4-yl)ethynyl]-4-pyridyl]amino]-5,6-difluoro-1-(trideuteriomethyl)quinazolin-2-one] | 5.77 | 34.9
4 | CC(C)(C#Cc1nccc(N(CC(F)F)c2nc(=O)[nH]c3cccc(F)c23)c1F)C(F)F [Example 121, 4-[[2-(4,4-difluoro-3,3-dimethyl-but-1-ynyl)-3-fluoro-4-pyridyl]-(2,2-difluoroethyl)amino]-5-fluoro-1H-quinazolin-2-one] | 20.7 | 8.44
5 | O=c1nc(N(CC(F)F)c2ccnc(C#CC3CC3)c2F)c2c(F)cccc2[nH]1 [Example 122, 4-[[2-(2-cyclopropylethynyl)-3-fluoro-4-pyridyl]-(2,2-difluoroethyl)amino]-5-fluoro-1H-quinazolin-2-one] | 7 | 3.46
6 | [2H]C([2H])([2H])n1c(=O)nc(N(CC(F)F)c2ccnc(C#CC(C)(C)C(F)F)c2F)c2c(F)cccc21 [Example 123, 4-[[2-(4,4-difluoro-3,3-dimethyl-but-1-ynyl)-3-fluoro-4-pyridyl]-(2,2-difluoroethyl)amino]-5-fluoro-1-(trideuteriomethyl)quinazolin-2-one] | 6.41 | 2.39
7 | [2H]C([2H])([2H])n1c(=O)nc(N(CC(F)F)c2ccnc(C#CC3(C(F)(F)F)CC3)c2F)c2c(F)cccc21 [Example 124, 4-[2,2-difluoroethyl-[3-fluoro-2-[2-[1-(trifluoromethyl)cyclopropyl]ethynyl]-4-pyridyl]amino]-5-fluoro-1-(trideuteriomethyl)quinazolin-2-one] | 12 | 1.27
8 | CC(C)(C#Cc1nccc(N(CC(F)F)c2nc(=O)[nH]c3cccc(F)c23)c1F)C(F)(F)F [Example 125, 4-[2,2-difluoroethyl-[3-fluoro-2-(4,4,4-trifluoro-3,3-dimethyl-but-1-ynyl)-4-pyridyl]amino]-5-fluoro-1H-quinazolin-2-one] | 40.8 | 2.18
9 | O=c1nc(N(CC(F)F)c2ccnc(C#CC3(C(F)F)CC3)c2F)c2c(F)cccc2[nH]1 [Example 126, 4-[2,2-difluoroethyl-[2-[2-[1-(difluoromethyl)cyclopropyl]ethynyl]-3-fluoro-4-pyridyl]amino]-5-fluoro-1H-quinazolin-2-one] | 18 | 3.37
10 | CC(C)(O)C#Cc1cccc2c1CCCN2c1nc(=O)[nH]c2cccc(Cl)c12 [Example 127, 5-chloro-4-[5-(3-hydroxy-3-methyl-but-1-ynyl)-3,4-dihydro-2H-quinolin-1-yl]-1H-quinazolin-2-one] | 8.66 | 3.92
11 | [2H]C([2H])([2H])n1c(=O)nc(N(CC(F)F)c2ccnc(C#CC(C)(C)O)c2F)c2c(F)cccc21 [Example 128, 4-[2,2-difluoroethyl-[3-fluoro-2-(3-hydroxy-3-methyl-but-1-ynyl)-4-pyridyl]amino]-5-fluoro-1-(trideuteriomethyl)quinazolin-2-one] | 7.36 | 41.2
12 | [2H]C([2H])([2H])n1c(=O)nc(N(CC(F)F)c2ccnc(C#CC3(C(F)F)CC3)c2F)c2c(F)cccc21 [Example 129, 4-[2,2-difluoroethyl-[2-[2-[1-(difluoromethyl)cyclopropyl]ethynyl]-3-fluoro-4-pyridyl]amino]-5-fluoro-1-(trideuteriomethyl)quinazolin-2-one] | 2.82 | 4.26
13 | [2H]C([2H])([2H])n1c(=O)nc(N2CCCc3c(C#CC(C)(C)O)cccc32)c2c(Cl)cccc21 [Example 130, 5-chloro-4-[5-(3-hydroxy-3-methyl-but-1-ynyl)-3,4-dihydro-2H-quinolin-1-yl]-1-(trideuteriomethyl)quinazolin-2-one] | 5.49 | 16.8
14 | CC(C)(C#Cc1nccc2c1CCCN2c1nc(=O)[nH]c2cccc(F)c12)C(F)(F)F [Example 131, 5-fluoro-4-[5-(4,4,4-trifluoro-3,3-dimethyl-but-1-ynyl)-3,4-dihydro-2H-1,6-naphthyridin-1-yl]-1H-quinazolin-2-one] | 43.7 | 11.1
15 | CC(F)(F)C1(C#Cc2nccc3c2CCCN3c2nc(=O)[nH]c3cccc(F)c23)CC1 [Example 132, 4-[5-[2-[1-(1,1-difluoroethyl)cyclopropyl]ethynyl]-3,4-dihydro-2H-1,6-naphthyridin-1-yl]-5-fluoro-1H-quinazolin-2-one] | 66.1 | 9.96
16 | CC(C)(C#Cc1nccc2c1CCCN2c1nc(=O)[nH]c2ccc(F)c(F)c12)C(F)(F)F [Example 133, 5,6-difluoro-4-[5-(4,4,4-trifluoro-3,3-dimethyl-but-1-ynyl)-3,4-dihydro-2H-1,6-naphthyridin-1-yl]-1H-quinazolin-2-one] | 23.2 | 4.47
17 | CC(F)(F)C1(C#Cc2nccc3c2CCCN3c2nc(=O)[nH]c3ccc(F)c(F)c23)CC1 [Example 134, 4-[5-[2-[1-(1,1-difluoroethyl)cyclopropyl]ethynyl]-3,4-dihydro-2H-1,6-naphthyridin-1-yl]-5,6-difluoro-1H-quinazolin-2-one] | 14.4 | 2.52
18 | [2H]C([2H])([2H])n1c(=O)nc(N(CC(F)F)c2ccnc(C#CC3(C(F)(F)F)CC3)c2)c2c(F)cccc21 [Example 135, 4-[2,2-difluoroethyl-[2-[2-[1-(trifluoromethyl)cyclopropyl]ethynyl]-4-pyridyl]amino]-5-fluoro-1-(trideuteriomethyl)quinazolin-2-one] | 10.6 | 2.23
19 | [2H]C([2H])([2H])n1c(=O)nc(N(CC(F)F)c2ccnc(C#Cc3cncn3C)c2)c2c(F)cccc21 [Example 136, 4-[2,2-difluoroethyl-[2-[2-(3-methylimidazol-4-yl)ethynyl]-4-pyridyl]amino]-5-fluoro-1-(trideuteriomethyl)quinazolin-2-one] | 26.5 | 84.4
20 | [2H]C([2H])([2H])n1c(=O)nc(N(CC(F)F)c2ccnc(C#Cc3cnn(C)c3)c2)c2c(F)cccc21 [Example 137, 4-[2,2-difluoroethyl-[2-[2-(1-methylpyrazol-4-yl)ethynyl]-4-pyridyl]amino]-5-fluoro-1-(trideuteriomethyl)quinazolin-2-one] | 10.2 | 24.2
21 | [2H]C([2H])([2H])n1c(=O)nc(N(CC(F)F)c2ccnc(C#CC3(C)CC3)c2)c2c(F)cccc21 [Example 138, 4-[2,2-difluoroethyl-[2-[2-(1-methylcyclopropyl)ethynyl]-4-pyridyl]amino]-5-fluoro-1-(trideuteriomethyl)quinazolin-2-one] | 6.83 | 4.59
22 | [2H]C([2H])([2H])n1c(=O)nc(N(CC(F)F)c2ccnc(C#CC(C)(C)C#N)c2)c2c(F)cccc21 [Example 139, 4-[4-[2,2-difluoroethyl-[5-fluoro-2-oxo-1-(trideuteriomethyl)quinazolin-4-yl]amino]-2-pyridyl]-2,2-dimethyl-but-3-ynenitrile] | 18.3 | 15.5
23 | [2H]C([2H])([2H])n1c(=O)nc(N2CCCc3c2ccnc3C#CC(C)(C)C#N)c2c(F)c(F)ccc21 [Example 140, 4-[1-[5,6-difluoro-2-oxo-1-(trideuteriomethyl)quinazolin-4-yl]-3,4-dihydro-2H-1,6-naphthyridin-5-yl]-2,2-dimethyl-but-3-ynenitrile] | 15.3 | 7.54
24 | [2H]C([2H])([2H])n1c(=O)nc(N2CCCc3c2ccnc3C#CC2(C(F)(F)F)CC2)c2c(F)c(F)ccc21 [Example 141, 5,6-difluoro-1-(trideuteriomethyl)-4-[5-[2-[1-(trifluoromethyl)cyclopropyl]ethynyl]-3,4-dihydro-2H-1,6-naphthyridin-1-yl]quinazolin-2-one] | 6.28 | 2.37
25 | [2H]C([2H])([2H])n1c(=O)nc(N2CCCc3c2ccnc3C#CC2(C(F)(F)F)CC2)c2c(F)cccc21 [Example 142, 5-fluoro-1-(trideuteriomethyl)-4-[5-[2-[1-(trifluoromethyl)cyclopropyl]ethynyl]-3,4-dihydro-2H-1,6-naphthyridin-1-yl]quinazolin-2-one] | 8.91 | 8.25
26 | CC(C)(C#N)C#Cc1cccc2c1CCCCN2c1nc(=O)[nH]c2cccc(F)c12 [Example 143, 4-[1-(5-fluoro-2-oxo-1H-quinazolin-4-yl)-2,3,4,5-tetrahydro-1-benzazepin-6-yl]-2,2-dimethyl-but-3-ynenitrile] | 18.4 | 1.75
27 | O=c1nc(N2CCOCc3c(C#CC4(C(F)(F)F)CC4)cccc32)c2c(F)ccc(F)c2[nH]1 [Example 144] | 21.8 | 5.34
28 | CC1(C#Cc2cccc3c2COCCN3c2nc(=O)[nH]c3c(F)ccc(F)c23)CC1 [Example 145] | 13 | 3.19
29 | O=c1nc(N2CCOCc3c(C#CC4CC4)cccc32)c2c(F)ccc(F)c2[nH]1 [Example 146] | 9.59 | 4.69
30 | CC(F)(F)C1(C#Cc2cccc3c2COCCN3c2nc(=O)[nH]c3c(F)ccc(F)c23)CC1 [Example 147] | 51.9 | 2.84
